The values below come from patent US7608282B2, “Transdermal granisetron” (Strakan International Limited, priority 2003, dated 2009).

SMILES strings stand for the structures. Counter-ions that a name gives are not always drawn.

For series [1] the following is noted: acrylic adhesives, WO98/53815; cited from earlier work.
Series [2] deals with delayed emesis in cancer patients. Nature of the series: continual IV infusion of granisetron in cancer patients, delayed emesis (Kalaycio et al.). Type of series: in vivo, human. Particulars: continual IV infusion at 40 μg/h. An excerpt:
The minimum therapeutic plasma level required for efficacious use of any drug is ideally assessed by titrated, prolonged IV infusion studies coupled to clinical response in patients.

The conditions of series [3]: cited from earlier work.
The conditions of series [4]: single administration of a 1 mg tablet, human volunteers; cited from earlier work.
Series [5] concerns delayed emesis in cancer patients. Particulars: continual IV infusion at 40 μg/h; cited from earlier work.
In series [6] the test system is post-operative nausea and vomiting. Particulars: doses as low as 0.1 mg; cited from earlier work.
Setting [7] is: continual twice daily dosing of 1 mg in cancer patients.

Consider `CN1[C@@H]2CC[C@H]1C[C@@H](OC(=O)c1c[nH]c3ccccc13)C2` [tropisetron], for which the “stability in adhesives containing nucleophilic (hydroxyl) moieties” value in series [1] is “unstable”.
Regarding `CN1C2CCCC1CC(NC(=O)c1nn(C)c3ccccc13)C2` (stereo not drawn) [granisetron, N-endo-9-methyl-9-azabicyclo[3.3.1]non-3-yl-1-methylindazole-3-carboxamide hydrochloride], the plasma level maintained result in series [2] is on record as “approximately 1.5 ng/ml”. Moreover, in series [3] (setting [7]), the “average peak plasma levels” value is 6 ng/mL and the clearance is 8.67 mL/min/kg. For the same compound, the Tmax result in series [3] (oral granisetron, population not given) was “approximately 2 hours”. Further, the Cmax in series [4] is 3.6 ng/mL. Moreover, the “effect on delayed emesis” value in series [5] is on record as “alleviate delayed emesis”. Further, the “prevention of post-operative nausea and vomiting” value in series [6] is “effective”.
